Literature values, collected in patent publication US10226441B2, “Aging inhibitor” (NIHON SIZEN HAKKOH CO., LTD., priority 2014, dated 2019).

System: mice of the same species (SAM-P1, male)

COc1c(O)c(C)c(C/C=C(\C)CC/C=C(\C)CC/C=C(\C)CC/C=C(\C)CC/C=C(\C)CC/C=C(\C)CC/C=C(\C)CC/C=C(\C)CC/C=C(\C)CCC=C(C)C)c(O)c1OC [CoQ10H2]
Average survival (Days) (Non-Patent Literature 14): (519.64 ± 79.53) days | Average survival, Age in weeks (Non-Patent Literature 14): 74.234 weeks | Average survival (Non-Patent Literature 14, listed as reduced CoQ10): 519.64 days

COC1=C(OC)C(=O)C(C/C=C(\C)CC/C=C(\C)CC/C=C(\C)CC/C=C(\C)CC/C=C(\C)CC/C=C(\C)CC/C=C(\C)CC/C=C(\C)CC/C=C(\C)CCC=C(C)C)=C(C)C1=O [CoQ10, coenzyme Q10]
Average survival, Age in weeks (Non-Patent Literature 14): 73.98 weeks
